In patent US20040014814A1, “Compositions and methods for delaying preventing rejuvenating or reversing senescence in cells” (priority 2000, published 2004):

Tested on: p16^INK4/CDKN2
Assay: Immunohistochemical staining of p16 in MRC-5 cell nuclei
Assay type: cell-based, human
Details: senescent cells, old media replaced with supplemented media, after a few days
Procedure: Senescent cells treated with acetyl-carnosine acquire a younger phenotype and no longer express p16 (C). Cells were stained from passage 30 until senescence was reached (approximately passage 65) in order to determine the effectiveness of p16 as a reliable biomarker.
Tissue culture cells were fixed by slowly infusing 4% paraformaldehyde in 0.1M sodium phosphate buffer pH 7.4 into the culture medium. This solution was then replaced with fixative alone and stored at −20° C. for 30 minutes. Cultures were then defrosted for 5 minutes at 37° C. and then washed with 3 changes of the 0.1M sodium phosphate buffer. […]
Three primary antibodies were used in this study: (i) murine monoclonal antibodies against cyclin-dependent kinase inhibitor p27^kipl (clone SX53G8, IgG, Loto38, DAKO, diluted 1:200); (ii) murine monoclonal antibodies against cyclin-dependent kinase inhibitor p21^WAP/CIPI (clone SX118, IgG, Loto88, DAKO, diluted 1:200); and (iii) murine monoclonal antibodies against cyclin-dependent kinase inhibitor p16^INK4/CDKN2 (clone DCS-50, IgG, Lot 077H4821, Sigma, diluted 1:200). […] An estimate of positively stained cells to specific antigens was determined. […]

CC(=O)NCCC(=O)N[C@@H](Cc1cnc[nH]1)C(=O)O [N-acetyl carnosine] was tested, and the “Expression of p16 in the nucleus” value was “no expression of p16 in the nucleus”.
